Assay results from PubChem BioAssay AID2060609 (Molecular Pharmacology Branch, DTP, NCI, 2025).

System: 855422-203-R-J1-PDC complex spheroids, viability
Assay: Anticancer human tumor 855422-203-R-J1-PDC patient-derived bladder carcinoma cell line growth inhibition [CLK]
Conditions: for IC50: curve of first compound; for viability, T/C: stronger effect = lower value
From the text: A high-throughput screen of multi-cell type tumor spheroids was designed to identify active combinations of […] and targeted small molecules. Complex spheroids include a stromal component modeled by human endothelial cells (HUVEC) and fibroblasts modeled by human mesenchymal stem cells (MSCs). The concentration ranges selected for each drug and investigational agent were based upon clinically achievable concentrations if the clinical Cmax of the agent was known.
Compounds. The drugs and investigational agents: cirtuvivint (SM08502; NSC835563), CC-671 (NSC850746), vemurafenib (NSC761431), tapotoclax (NSC804041), sotorasib (NSC818433), adagrasib (NSC831453), MRTX-1133 (NSC836407), BAY2416964 (NSC825713), copanlisib (NSC816437), inavolisib (NSC800729), abemaciclib (NSC768073), osimertinib (NSC779217), entinostat (NSC756642), eltanexor (KPT-8602, NSC794443), venetoclax (NSC766270), ceralasertib (NSC777638), bortezomib (NSC756655), olaparib (NSC753686), talazoparib (NSC767125), alisertib (NSC759677), peposertib (NSC802822), gemcitabine (NSC613327), 5-fluorouracil (NSC19893), SN-38 (NSC673596), oxaliplatin (NSC266046), paclitaxel (NSC125973), and doxorubicin (NSC123127), were obtained from the National Cancer Institute (NCI) Developmental Therapeutics Program Chemical Repository. The FDA-approved anticancer drug set is available from the Developmental Therapeutics Program at https://dtp.cancer.gov/organization/dscb/obtaining/available plates.htm. […] The stock solutions were prepared in dimethyl sulfoxide (DMSO, Sigma-Aldrich, St. Louis, MO, cat. D2650), except for the platinum complexes which were prepared in saline (Quality Biological, Gaithersburg, MD, cat. 114-055-101), at 800-fold the tested concentration and stored at -70 degrees C prior to their use. All drugs and investigational agents were tested over a range starting from a high concentration at or near the clinical Cmax and decreasing in half-log increments. If the clinical Cmax for an agent had not been determined, the highest concentration tested was 10 microM.
Cell Culture. All cells were maintained in an incubator at 37 degrees C and 5% CO2 with 95% humidity. The PDC lines were cultured according to standard operating procedures established by the NCI PDMR. Briefly, all PDCs were thawed and cultured in Matrigel-coated flasks prepared with a working solution of 1X Ham's F-12 nutrient mix, without supplementation (Invitrogen, Waltham, MA, cat. 11765054), 100 U/mL penicillin-streptomycin (Invitrogen, cat. 15140122), and 2.5% Matrigel (Corning Inc., Corning, NY, cat. 354248) for the first three passages. The 947758-054-R-J2-PDC line was cultured in 6B/Colon 1A media, which includes advanced DMEM/F-12 (Thermo Fisher Scientific, cat. 12634028), 10 mM HEPES (Thermo Fisher Scientific, cat. 15630080), 1X GlutaMAX supplement (Thermo Fisher Scientific, cat. 35050061), 0.1 mg/mL primocin (InvivoGen, cat. ant-pm-2), 10% defined fetal bovine serum, heat inactivated (HyClone Laboratories Inc., cat. SH30070.03HI), 1.25 mM N-Acetyl-L-cysteine (Sigma-Aldrich, cat. A9165), 10 mM nicotinamide (Sigma-Aldrich, cat. N0636), 1X B-27 supplement (Thermo Fisher Scientific, cat. 17504044), 1X N-2 supplement (Thermo Fisher Scientific, cat. 17502048), and 10 microM Y-27632 dihydrochloride (Tocris Bioscience, cat. 1254). The 876862-298-R-J1-PDC was cultured in 6E media, which includes all 6B/Colon 1A media components plus 50% L-WRN conditioned media (ATCC, cat. CRL-3276), 50 ng/mL recombinant human EGF recombinant protein (hEGF; Thermo Fisher Scientific, cat. PHG0311), 10 ng/mL recombinant human fibroblast growth factor 10 (hGFG-10; PeproTech, cat. 100-26), 1 ng/mL recombinant human fibroblast growth factor 2 (hFGF-2; PeproTech, cat. 100-18B), and 1 µM prostaglandin E2 (PGE2; Tocris, cat. 2296). The 227483-062-R1-J1-PDC line was cultured in Panc media, containing all 6E components except hFGF-2, with the addition of 500 nM SB-431542 (Selleckchem, cat. S1067) and 10 nM gastrin (Tocris, cat. 3006). […]

[1] = second compound 0.0316 µM, first compound 0.0316 µM
[2] = second compound 0.0316 µM, first compound 0.1 µM
[3] = second compound 0.0316 µM, first compound 0.316 µM
[4] = second compound 0.0316 µM, first compound 1 µM
[5] = second compound 0.1 µM, first compound 0.0316 µM
[6] = second compound 0.1 µM, first compound 0.1 µM
[7] = second compound 0.1 µM, first compound 0.316 µM
[8] = second compound 0.1 µM, first compound 1 µM
[9] = second compound 0.316 µM, first compound 0.0316 µM
[10] = second compound 0.316 µM, first compound 0.1 µM
[11] = second compound 0.316 µM, first compound 0.316 µM
[12] = second compound 0.316 µM, first compound 1 µM
[13] = second compound 1 µM, first compound 0.0316 µM
[14] = second compound 1 µM, first compound 0.1 µM
[15] = second compound 1 µM, first compound 0.316 µM
[16] = second compound 1 µM, first compound 1 µM
[17] = second compound 3.16 µM, first compound 0.0316 µM
[18] = second compound 3.16 µM, first compound 0.1 µM
[19] = second compound 3.16 µM, first compound 0.316 µM
[20] = second compound 3.16 µM, first compound 1 µM
[21] = second compound 10 µM, first compound 0.0316 µM
[22] = second compound 10 µM, first compound 0.1 µM
[23] = second compound 10 µM, first compound 0.316 µM
[24] = second compound 10 µM, first compound 1 µM
[25] = second compound 0.0316 µM, first compound 0.00316 µM
[26] = second compound 0.0316 µM, first compound 0.01 µM
[27] = second compound 0.1 µM, first compound 0.00316 µM
[28] = second compound 0.1 µM, first compound 0.01 µM
[29] = second compound 0.316 µM, first compound 0.00316 µM
[30] = second compound 0.316 µM, first compound 0.01 µM
[31] = second compound 1 µM, first compound 0.00316 µM
[32] = second compound 1 µM, first compound 0.01 µM
[33] = second compound 3.16 µM, first compound 0.00316 µM
[34] = second compound 3.16 µM, first compound 0.01 µM
[35] = second compound 10 µM, first compound 0.00316 µM
[36] = second compound 10 µM, first compound 0.01 µM
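Note: spheroids exposed to drugs for seven days before readout.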
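Throughout, for viability, T/C: 100% = DMSO vehicle control wells.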

## CC(Nc1ccc2c(c1)OCCn1cc(N3C(=O)OCC3C(F)F)nc1-2)C(N)=O (stereo unspecified) + CN1CCN(c2cc(C(=O)Nc3cc4cc(-c5cnn(C)c5)ccc4cn3)ccn2)CC1
Second compound 0.0316 µM
  IC50: 280 nM
Second compound 0.1 µM
  IC50: 242 nM
Second compound 0.316 µM
  IC50: < 31.6 nM
Second compound 1 µM
  IC50: < 31.6 nM
Second compound 3.16 µM
  IC50: < 31.6 nM
Second compound 10 µM
  IC50: < 31.6 nM
[1]
  viability, T/C: 88.2%
[2]
  viability, T/C: 66.4%
[3]
  viability, T/C: 46.1%
[4]
  viability, T/C: 35.4%
Second compound 0.0316 µM, first compound 3.16 µM
  viability, T/C: 26.4%
Second compound 0.0316 µM, first compound 10 µM
  viability, T/C: 15.5%
[5]
  viability, T/C: 72.1%
[6]
  viability, T/C: 69.4%
[7]
  viability, T/C: 40.8%
[8]
  viability, T/C: 30.4%
Second compound 0.1 µM, first compound 3.16 µM
  viability, T/C: 20.1%
Second compound 0.1 µM, first compound 10 µM
  viability, T/C: 13.7%
[9]
  viability, T/C: 7.06%
[10]
  viability, T/C: 6.03%
[11]
  viability, T/C: 4.86%
[12]
  viability, T/C: 2.74%
Second compound 0.316 µM, first compound 3.16 µM
  viability, T/C: 2.03%
Second compound 0.316 µM, first compound 10 µM
  viability, T/C: 0.75%
[13]
  viability, T/C: 0.18%
[14]
  viability, T/C: 0.12%
[15]
  viability, T/C: 0.13%
[16]
  viability, T/C: 0.11%
Second compound 1 µM, first compound 3.16 µM
  viability, T/C: 0.07%
Second compound 1 µM, first compound 10 µM
  viability, T/C: 0.06%
[17]
  viability, T/C: 0.43%
[18]
  viability, T/C: 0.67%
[19]
  viability, T/C: 0.28%
[20]
  viability, T/C: 0.23%
Second compound 3.16 µM, first compound 3.16 µM
  viability, T/C: 0.24%
Second compound 3.16 µM, first compound 10 µM
  viability, T/C: 0.18%
[21]
  viability, T/C: 0.28%
[22]
  viability, T/C: 0.21%
[23]
  viability, T/C: 0.23%
[24]
  viability, T/C: 0.3%
Second compound 10 µM, first compound 3.16 µM
  viability, T/C: 0.29%
Second compound 10 µM, first compound 10 µM
  viability, T/C: 0.26%

## CCN1CCN(Cc2ccc(Nc3ncc(F)c(-c4cc(F)c5nc(C)n(C(C)C)c5c4)n3)nc2)CC1 + CN1CCN(c2cc(C(=O)Nc3cc4cc(-c5cnn(C)c5)ccc4cn3)ccn2)CC1
Second compound 0.0316 µM
  IC50: 262 nM
Second compound 0.1 µM
  IC50: 158 nM
Second compound 0.316 µM
  IC50: < 3.16 nM
Second compound 1 µM
  IC50: < 3.16 nM
Second compound 3.16 µM
  IC50: < 3.16 nM
Second compound 10 µM
  IC50: < 3.16 nM
[25]
  viability, T/C: 82.8%
[26]
  viability, T/C: 97.1%
[1]
  viability, T/C: 87.7%
[2]
  viability, T/C: 56.2%
[3]
  viability, T/C: 54.6%
[4]
  viability, T/C: 42.9%
[27]
  viability, T/C: 66.3%
[28]
  viability, T/C: 72.4%
[5]
  viability, T/C: 76.2%
[6]
  viability, T/C: 59.9%
[7]
  viability, T/C: 34.8%
[8]
  viability, T/C: 30.4%
[29]
  viability, T/C: 7.42%
[30]
  viability, T/C: 10.2%
[9]
  viability, T/C: 14.1%
[10]
  viability, T/C: 13.1%
[11]
  viability, T/C: 18%
[12]
  viability, T/C: 14.3%
[31]
  viability, T/C: 0.35%
[32]
  viability, T/C: 0.82%
[13]
  viability, T/C: 1.18%
[14]
  viability, T/C: 0.5%
[15]
  viability, T/C: 0.97%
[16]
  viability, T/C: 1.71%
[33]
  viability, T/C: 0.55%
[34]
  viability, T/C: 1.57%
[17]
  viability, T/C: 0.95%
[18]
  viability, T/C: 0.83%
[19]
  viability, T/C: 2.86%
[20]
  viability, T/C: 2.68%
[35]
  viability, T/C: 0.5%
[36]
  viability, T/C: 0.53%
[21]
  viability, T/C: 0.3%
[22]
  viability, T/C: 0.46%
[23]
  viability, T/C: 0.64%
[24]
  viability, T/C: 0.65%

## COc1c(OCCCN2CCOCC2)ccc2c3n(c(=NC(=O)c4cnc(N)nc4)nc12)CCN3 + CN1CCN(c2cc(C(=O)Nc3cc4cc(-c5cnn(C)c5)ccc4cn3)ccn2)CC1
Second compound 0.0316 µM
  IC50: 16.8 nM
Second compound 0.1 µM
  IC50: 16.1 nM
Second compound 0.316 µM
  IC50: < 3.16 nM
Second compound 1 µM
  IC50: < 3.16 nM
Second compound 3.16 µM
  IC50: < 3.16 nM
Second compound 10 µM
  IC50: < 3.16 nM
[25]
  viability, T/C: 99.6%
[26]
  viability, T/C: 62.2%
[1]
  viability, T/C: 36.4%
[2]
  viability, T/C: 11.9%
[3]
  viability, T/C: 3.81%
[4]
  viability, T/C: 2.23%
[27]
  viability, T/C: 72.3%
[28]
  viability, T/C: 63.5%
[5]
  viability, T/C: 31.1%
[6]
  viability, T/C: 10.7%
[7]
  viability, T/C: 3.24%
[8]
  viability, T/C: 2.43%
[29]
  viability, T/C: 8.06%
[30]
  viability, T/C: 6.72%
[9]
  viability, T/C: 3.02%
[10]
  viability, T/C: 1.03%
[11]
  viability, T/C: 0.35%
[12]
  viability, T/C: 0.51%
[31]
  viability, T/C: 0.24%
[32]
  viability, T/C: 0.17%
[13]
  viability, T/C: 0.09%
[14]
  viability, T/C: 0.07%
[15]
  viability, T/C: 0.05%
[16]
  viability, T/C: 0.12%
[33]
  viability, T/C: 0.37%
[34]
  viability, T/C: 0.37%
[17]
  viability, T/C: 0.6%
[18]
  viability, T/C: 0.12%
[19]
  viability, T/C: 0.13%
[20]
  viability, T/C: 0.1%
[35]
  viability, T/C: 0.23%
[36]
  viability, T/C: 0.33%
[21]
  viability, T/C: 0.19%
[22]
  viability, T/C: 0.18%
[23]
  viability, T/C: 0.32%
[24]
  viability, T/C: 0.15%
